# Where “and” joins values, the source holds several entries; their conditions need not be identical. Identical values can stand only once.
# Experiments:
# Assay type in all cases: cell-based
# ADBR2 = molecular target: T1, ADBR2 (Homo sapiens, UniProt P07550); test: CRE-Luc reporter Gs signaling assay, control receptor ADBR2
# T1 construct: host or cells: HEK293 or CHO cell lines (ATCC)
# Experimental: (§1) Compounds were tested in the reporter system with increasing concentrations of GPR174-interacting compounds. GPR174 construct pCMV6-XL4-GPR174 or ADBR2, reporter of interest, pCRE-Luc or GL4.29 (3000 ng), and TK-renilla as an internal control (10 ng) with lipofectamine 2000 (60 ug) (Invitrogen, CA) according to the manufacturer's directions.
# (§2) The DNA/lipofectamine 2000 mix (3000 μL) was incubated at room temperature for 30 minutes and then added into a 10 cm culture dish (Corning, NY) containing 70-90% confluent cultured cells, typically HEK293 or CHO cell lines (ATCC, VA), in 15 mL of media. The cells were further incubated for 4-6 hours at 37° C. and then media were removed and cells were detached with 2 mL trypsin (Life Technologies, CA). Media (26 mL) were added to the detached cells and 120 μL of transfected cells were transferred to each well on a 96-well plate. Increasing concentration of each compound in DMSO (1.2 μl) was added to the cells after plating into the 96-well plate. The cells were further incubated at 37° C. for various times. The media were removed and the cells lysed. Luciferase and renilla activities were measured with the Dual-luciferase assay system (Promega, WI) according to the manufacturer's directions. Typically, lysis buffer (25 μL) was added to the cells and incubated at room temperature for 20-30 minutes to allow for the cells to lyse. The lysate (10 μL) was measured for luciferase and renilla activity with LARII and Stop&Glo reagent (50 μL each) with a SpectraMax L (Molecular Devices, CA). Data were analyzed with either Excel (Microsoft, WA) or Prism 4.03 (GraphPad, CA).
# (§3) ADBR2 is a GPCR, like GPR174, that activates the Gs signaling pathway.
# CHRM1 = test: Cellular Redistribution Assay (CRA) against CHRM1; conditions: FIG. 5B
# Text: (§4) The inventors used a CRA similar to that described in U.S. Pat. No. 7,309,576 and O'Dowd et al., J. Biomol. Screen. 12:175-85, 2007 to identify compounds that are capable of interacting with GPR174 using a library of approximately 370,000 chemical entities. Briefly described, the CRA assay described in U.S. Pat. No. 7,309,576 involves artificially inserting a NLS into the dopamine D1 receptor (DRD1), which allows the receptor to traffic from the cell membrane to the cell interior, and that the binding of antagonists to the receptor retained the receptor at the cell surface, while removal of the ligand allowed the receptor to continue to internalize from the cell surface. Both antagonists and agonists that selectively bound the receptor retained the receptor on the plasma membrane. GPR174 constructs were generated for use in a CRA-based compound screening assay. From this screen, the inventors initially identified compounds of formula I-VI, as described herein and included in TABLE 1.
# The inventors also sought to validate that the compounds identified using the CRA are modulatory compounds. To this end, the above-described CRA was used to screen a library for compounds that interact with three control non-orphan receptors, and the results of this screen were compared to the results of screening the same library for compound that were identified using a Fluorometric Imaging Plate Reader (FLIPR) assay, a conventional technique commonly used to identify compounds interacting with non-orphan GPCRs signaling through Ca+. Three non-orphan GPCRs—Muscarinic acetylcholine receptor M1 (CHRM1), Adrenergic receptor alpha 1a (ADRA1a), and Neuropeptide S receptor (NPSR)—were screened against a 10,000-compound GPCR-focused library. Thirty interacting compound “hits” were identified using the CRA, and eighty-one hits were identified using the FLIPR for the CHRM1 receptor; 9 CRA hits and 29 FLIPR hits for the NPS receptor were identified; and 110 CRA hits and 110 FLIPR hits for ADRA1a.
# In addition, the CRA can also provide the relative potencies of compounds against the target receptor.
# GPR174 [1] = molecular target: T2, GPR174 (Homo sapiens, UniProt Q9BXC1); test: CRE-Luc reporter Gs signaling assay, cells transfected with GPR174; parameters: host or cells: HEK293 or CHO cell lines (ATCC); conditions: for effect on Gs pathway in the presence of GPR174: CRE-Luc reporter; for nature of compound in GPR174 signaling assay: human GPR174 with pCRE-Luc
# Experimental: as §1, §2, §3
# Target sequence in this assay (Q9BXC1 whole entry): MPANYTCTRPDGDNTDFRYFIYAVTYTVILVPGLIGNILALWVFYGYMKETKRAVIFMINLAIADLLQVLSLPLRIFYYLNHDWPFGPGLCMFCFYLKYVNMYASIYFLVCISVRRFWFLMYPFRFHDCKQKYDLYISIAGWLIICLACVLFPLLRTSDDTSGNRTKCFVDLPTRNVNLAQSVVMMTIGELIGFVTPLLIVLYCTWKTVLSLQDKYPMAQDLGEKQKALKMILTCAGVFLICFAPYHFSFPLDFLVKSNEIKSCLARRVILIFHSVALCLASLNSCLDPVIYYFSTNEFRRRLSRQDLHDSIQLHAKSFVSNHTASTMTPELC
# GPR174 [2] = molecular target: T2, GPR174; test: Cellular Redistribution Assay (CRA) against GPR174; parameters: fused on or other part: No tag or reporter is given; conditions: for dose-response in CRA against GPR174: FIG. 5A; for EC50: multiple values = separate experiments
# Text: One method for identifying compounds capable of modulating a receptor is using a cellular redistribution assay (“CRA”). Exemplary CRA methods are found in U.S. Pat. No. 7,309,576 issued to O'Dowd et al. and in O'Dowd et al., J. Biomol. Screen. 12:175-85, 2007. […] Incorporation of the NLS alters the cellular localization of the GPCR, such that the majority of the NLS-modified receptor is present in the cell interior. An NLS-modified GPCR, when interacting with a functionally active compound, is mostly localized on the cell surface. Thus, it becomes possible to identify receptor modulators without knowledge of the endogenous ligand or a surrogate ligand.
# The inventors have identified a number of compounds that inhibit GPR174 using a CRA assay similar to that described in U.S. Pat. No. 7,309,576 and in O'Dowd et al., J. Biomol. Screen. 12:175-85, 2007. These compounds are described in detail below.
# as §4
# Target sequence in this assay (Q9BXC1 1-290 limits assumed): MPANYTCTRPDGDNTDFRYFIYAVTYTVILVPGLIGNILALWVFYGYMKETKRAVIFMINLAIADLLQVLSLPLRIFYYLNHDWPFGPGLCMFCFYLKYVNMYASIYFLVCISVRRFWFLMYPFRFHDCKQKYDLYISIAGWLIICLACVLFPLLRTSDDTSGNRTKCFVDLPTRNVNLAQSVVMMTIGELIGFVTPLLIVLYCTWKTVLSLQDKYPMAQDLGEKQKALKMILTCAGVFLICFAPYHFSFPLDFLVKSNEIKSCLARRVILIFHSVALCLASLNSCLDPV
# human PBMCs = test: Cytokines in culture supernatants of stimulated human PBMCs (ELISA / LEGENDplex); conditions: data not shown
# Experimental: The effect of compound #10 on IL-2 and IFN-γ production in human PBMCs was determined as follows. PBMCs from a single donor were adjusted to a density of 2×10^6 cells/mL, stimulated with 100 ng/mL of anti-CD3 and 100 ng/mL of anti-CD28 antibodies and treated with 1 μM, 3 μM, or 10 μM of compound #10. Supernatant from these cells was taken on day 2 post-stimulation and the levels of IL-2 and IFN-γ were determined by ELISA assay using Ready-SET-Go ELISA kits from Affimetrix Ebioscience according to the manufacturer's instructions.
# The effect of compound #10 on IL-2 production in human PBMCs was determined as follows. […] Supernatant from these cells was taken on day 3 post-stimulation and the levels of IL-2 were determined by ELISA assay using Ready-SET-Go™ ELISA kits from Affimetrix Ebioscience and LEGENDplex™ bead-based immunoassays from BioLegend according to the manufacturer's instructions.
# The effect of compound #10 on IL-2 production in human PBMC from each donor was determined as follows. PBMC from each donor were adjusted to a density of 2×10^6 cells/mL, stimulated with 100 ng/mL of anti-CD3 and 100 ng/mL of anti-CD28 antibodies and treated with 30 μM compound #10. Supernatant from these cells was taken on day 2 post-stimulation and the levels of IL-2 were determined by ELISA assay using LEGENDplex™ bead-based immunoassays from BioLegend (San Diego, CA) according to the manufacturer's instructions.
# The effect of compound #10 on the production of a panel of additional cytokines (interleukin 5 (IL-5), interleukin 13 (IL-13), interleukin 6 (IL-6), interleukin 9 (IL-9), interleukin 10 (IL-10), interferon gamma (IFN-γ), tumor necrosis factor alpha (TNF-α), interleukine 17A (IL-17A), interleukin 17F (IL-17F), interleukin 4 (IL-4) and interleukin 22 (IL-22)) in pooled human PBMC obtained from eight donors was determined as follows. PBMC from eight donors were pooled, then adjusted to a density of 2×10^6 cells/mL, stimulated with 100 ng/mL of anti-CD3 and 100 ng/mL of anti-CD28 antibodies and treated with 30 μM compound #10. Supernatant from these cells was taken on day 2 post-stimulation and the levels of IL-5, IL-13, IL-6, IL-9, IL-10, IFN-γ, TNF-α, IL-17A, IL-17F, IL-4 and IL-22 were determined by ELISA using LEGENDplex™ bead-based immunoassays from BioLegend (San Diego, CA) according to the manufacturer's instructions.
# T1 sequence (P07550 whole entry): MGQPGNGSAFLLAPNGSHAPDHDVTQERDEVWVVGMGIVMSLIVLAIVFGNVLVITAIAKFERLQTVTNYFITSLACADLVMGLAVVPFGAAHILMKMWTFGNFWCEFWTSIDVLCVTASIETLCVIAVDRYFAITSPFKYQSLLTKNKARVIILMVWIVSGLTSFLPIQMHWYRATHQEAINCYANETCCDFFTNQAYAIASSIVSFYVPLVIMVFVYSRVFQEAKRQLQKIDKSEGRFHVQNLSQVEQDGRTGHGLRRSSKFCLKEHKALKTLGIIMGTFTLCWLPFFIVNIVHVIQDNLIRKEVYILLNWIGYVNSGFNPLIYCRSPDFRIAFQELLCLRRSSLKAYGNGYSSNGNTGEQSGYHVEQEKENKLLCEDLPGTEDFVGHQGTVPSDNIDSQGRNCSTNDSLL
effect on Gs pathway in the presence of ADBR2 (ADBR2),effect on Gs pathway in the presence of GPR174 (GPR174 [1]),Human GPR174 CRE Activity: nature of compound (GPR174 [1]),nature of compound in GPR174 signaling assay (GPR174 [1]),SMILES,other results
did not inhibit the Gs pathway,inhibited the Gs pathway,–,–,CCOC(=O)N1CCN(c2cc(N3CCC(C)CC3)c(F)cc2[N+](=O)[O-])CC1 [Compound 1],activity in CRA against CHRM1 (CHRM1): do not show any activity against CHRM1; dose-response in CRA against GPR174 (GPR174 [2]): show a dose-response curve against GPR174
–,–,Antagonist or allosteric modulator,–,CC(=O)c1ccc(N2CCN(C(=O)c3ccc(F)cc3)CC2)c(F)c1 [Compound 3],activity in CRA against CHRM1 (CHRM1): do not show any activity against CHRM1; dose-response in CRA against GPR174 (GPR174 [2]): show a dose-response curve against GPR174
did not inhibit the Gs pathway,inhibited the Gs pathway,–,–,O=C(c1ccccc1)N1CCN(c2cc(N3CCCCC3)c(F)cc2[N+](=O)[O-])CC1 [Compound 6],IL-2 levels in PBMC cultures (human PBMCs): increased IL-2 levels
did not inhibit the Gs pathway,inhibited the Gs pathway,–,–,CCOC(=O)N1CCN(c2cc(N3CCCCC3)c(F)cc2[N+](=O)[O-])CC1 [Compound 7],–
did not inhibit the Gs pathway,inhibited the Gs pathway,–,–,O=[N+]([O-])c1cc(F)c(N2CCCCC2)cc1N1CCN(S(=O)(=O)c2ccccc2)CC1 [Compound 11],EC50 (GPR174 [2]): 1.5 µM
–,–,–,–,CC1CCN(c2cc(N3CCN(C(=O)c4cccs4)CC3)c([N+](=O)[O-])cc2F)CC1 [Compound 12],EC50 (GPR174 [2]): 0.3 µM
did not modulate the Gs pathway,did not modulate the Gs pathway,Antagonist or allosteric modulator,non-modulators,Cc1ccc(-c2nnc(Nc3ccccc3)c3ccccc23)cc1S(N)(=O)=O [Compound 19],–
–,–,Antgonist or allosteric modulator,non-modulators,Cc1ccccc1Nc1nnc(-c2ccc(C)c(S(N)(=O)=O)c2)c2ccccc12 [Compound 20],activity in CRA against CHRM1 (CHRM1): do not show any activity against CHRM1; dose-response in CRA against GPR174 (GPR174 [2]): show a dose-response curve against GPR174
did not modulate the Gs pathway,did not modulate the Gs pathway,Antagonist or allosteric modulator,non-modulator,Cc1cc(Cc2ccc(NC(=O)c3cccs3)c(C)c2)ccc1NC(=O)c1cccs1 [Compound 21],–
did not inhibit the Gs pathway,inhibited the Gs pathway,–,–,COc1ccc(C2C3=C(CCCC3=O)NC3=C2C(=O)c2ccccc23)cc1 (stereo not drawn) [Compound 22],EC50 (GPR174 [2]): 6.7 µM and 5.3 µM
did not inhibit the Gs pathway,inhibited the Gs pathway,–,–,CCOc1ccc(C2C3=C(CCCC3=O)NC3=C2C(=O)c2ccccc23)cc1 (stereo not drawn) [Compound 23],–
did not inhibit the Gs pathway,inhibited the Gs pathway,–,–,CCCCOc1ccc(C2C3=C(CCCC3=O)NC3=C2C(=O)c2ccccc23)cc1 (stereo not drawn) [Compound 31],–
did not inhibit the Gs pathway,inhibited the Gs pathway,–,–,O=C1CCCC2=C1C(c1ccc(OCCO)cc1)C1=C(N2)c2ccccc2C1=O (stereo not drawn) [Compound 33],–
did not inhibit the Gs pathway,inhibited the Gs pathway,–,–,O=C1CCCC2=C1C(c1ccc3c(c1)OCCO3)C1=C(N2)c2ccccc2C1=O (stereo not drawn) [Compound 36],–
did not inhibit the Gs pathway,inhibited the Gs pathway,–,–,O=C1CCCC2=C1C(c1ccncc1)C1=C(N2)c2ccccc2C1=O (stereo not drawn) [Compound 42],–
–,–,–,inverse agonist,C=C(C)COc1ccc(NC(=O)Nc2ccccc2)cc1 [Compound 56],–

SMILES,effect on Gs pathway in the presence of ADBR2 (ADBR2),effect on Gs pathway in the presence of GPR174 (GPR174 [1]),Human GPR174 CRE Activity: nature of compound (GPR174 [1]),nature of compound in GPR174 signaling assay (GPR174 [1]),other results
O=C(N/N=C/c1cc(Cl)ccc1O)c1ccncc1 [Compound 57],–,–,Antagonist or allosteric modulator,GPR174 antagonists or allosteric modulators,EC50 (GPR174 [2]): 5.6 µM
Cc1cc(C(=O)N/N=C/c2cc(Br)ccc2O)c(C)o1 [Compound 58],–,–,Antagonist or allosteric modulator,GPR174 antagonists or allosteric modulators,EC50 (GPR174 [2]): 3.7 µM
